Where a SMILES comes first, the peptide text is derived from it. [ ]: non-standard residue; d: D form. pGlu = O=C1CC[C@@H](C(=O)O)N1
Test system: diet-induced obese male mice
Assay: Metabolic chamber studies after a single dose (food intake, RER, movement, VO2, VCO2)
Assay type: in vivo, mouse
Settings: single dose 50 mg/kg intraperitoneal
Protocol: Fig. 5 Functional studies of […] in feeding and energy balance in mice. a Schematic of the primary amino acid sequence for full-length mouse GDF15 preproprotein and annotation of CAP-GDF15 sequence as well as the canonical GDF15 hormone sequence. b–d Food intake (b), respiratory exchange ratio (RER, c), and ambulatory activity (d) of 12–16-week diet-induced obese male mice following a single treatment of CAP-GDF15 (50 mg/kg, intraperitoneal) or vehicle control. e–g Food intake (e), RER (f), and ambulatory activity (g) of 12–16-week diet-induced obese male mice following a single treatment of scrambled CAP-GDF15 (50 mg/kg, intraperitoneal, scrambled sequence: pGlu-[…]-NH2) or vehicle control. h, i 3-day food intake (h) and body weight (i) of 12–16-week diet-induced obese male mice following treatment with CAP-GDF15 or scrambled CAP-GDF15 (50 mg/kg/day, IP), or vehicle control. […] For (b-i), p values were calculated by two-way ANOVA. Source data are provided as a Source Data file.
Animal experiments were performed according to a procedure approved by the Stanford University Administrative Panel on Laboratory Animal Care. Mice were maintained in 12-h light-dark cycles at 22 °C and about 50% relative humidity and fed a standard irradiated rodent diet. Where indicated, a high-fat diet (D12492, Research Diets 60% kcal from fat) was used. Male C57BL/6 J (stock number 000664) and male C57BL/6 J DIO mice were purchased from the Jackson Laboratory (stock number 380050). For studies in high-fat diet-fed mice, peptides were dissolved in 18:1:1 (by volume) of saline:Kolliphor EL (Sigma Aldrich):DMSO and administered to mice by intraperitoneal injections at a volume of 10 µl/g at the indicated doses for the indicated times. For lipopolysacchardide injection, LPS (Sigma, #L2880-10MG) was dissolved in saline and administered to mice at a volume of 5 µl/g at indicated dose. For fasting, food was removed from mice for 16 h. For running, a six-lane Columbus Instruments animal treadmill (product 1055-SRM-D65) was used with following 1 h protocol: 10 min at 6 m/min, 50 min at 18 m/min, and increase every 2 min by 2 m/min for the last 10 minutes, all at 12° incline. For all treatment experiments, mice were mock injected with the vehicle for 3–5 days until body weights were stabilized. Heparin plasma was harvested by submandibular bleed. For all experiments, mice were randomly assigned to treatment groups. Experimenters were not blinded to groups.
For acute energy expenditure studies, food intake, RER, movement, VO2, and VCO2 were collected with CLAMS Oxymax Metabolic Cages. Mice were placed in individual metabolic cages for 24 hours prior to experiment. Mice were injected with either vehicle, 50 mg/kg CAP-GDF15, 50 mg/kg uncapped CAP-GDF15, or 50 mg/kg scrambled CAP-GDF15 at 5 pm at T = 0. […] All experiments were done with 3–5 month old DIO mice (Jackson, stock 380050), fed high-fat diet ad libitum.
Supplementary Figure 5. Additional measurements from metabolic chambers of mice treated with CAP-GDF15. a CAP-GDF15 plasma concentration after administration of CAP-GDF15 (50 mg/kg, intraperitoneal) or vehicle control. b-c VO2 (b) and VCO2 (c) of 12-16-week diet-induced obese male mice following a single treatment of CAP-GDF15 (50 mg/kg, intraperitoneal) or vehicle control. d-e VO2 (d) and VCO2 (e) of 12-16-week diet-induced obese male mice following a single treatment of scrambled CAP-GDF15 (50 mg/kg, intraperitoneal, scrambled sequence: p[…]-NH2) or vehicle control. f Acute food intake of 12-16-week diet-induced obese male mice following a single treatment of CAP-GDF15 (50 mg/kg, intraperitoneal), uncapped CAP-GDF15 (50 mg/kg, intraperitoneal), or vehicle control. For (a), N=3/group; (b-c), N=12/group; for (d-e), N=8/group; for (f), N=5/group.
For (a-f), injection occurred at time T=0 (5:00pm). Data are shown as means ± SEM. For (b-i), p values were calculated by two-way ANOVA. Source data are provided as a Source Data

[1] = diet-induced obese male mice, N = 12/group

## CC(C)C[C@H](NC(=O)[C@@H]1CCC(=O)N1)C(=O)N[C@@H](CCC(=O)O)C(=O)N[C@@H](CC(C)C)C(=O)N[C@@H](CCCNC(=N)N)C(=O)N[C@@H](CC(C)C)C(=O)N[C@@H](CCCNC(=N)N)C(=O)N[C@H](C(=O)N[C@@H](C)C(=O)N[C@@H](C)C(=O)NCC(=O)N[C@@H](CCCNC(=N)N)C(N)=O)C(C)C [CAP-GDF15] ([pGlu]LELRLRVAAGR-NH2)
12–16-week diet-induced obese male mice, 16 h after injection, N = 12 mice/group
  suppression of food intake compared to vehicle-treated mice: ~ 60%
[1]
  effect on carbon dioxide production (VCO2): did not alter
  effect on oxygen consumption (VO2): did not alter
diet-induced obese male mice, N = 12 mice/group
  effect on movement (ambulatory activity): did not alter
diet-induced obese male mice, metabolic chambers
  effect on respiratory exchange ratio (RER): suppression

Reference: paper PMC10709327, “A class of secreted mammalian peptides with potential to expand cell-cell communication” (Nature Communications, 2023)
